Holding throughout (set-up): scale not given: the % may be the effect or the level left
For assay [1], the target named is Bone morphogenetic protein receptor type-1B (Homo sapiens) (UniProt O00238). As to the kind of experiment: Inhibition of human ALK6 assessed as enzyme activity at 1 uM using casein as substrate preincubated for 20 mins followed by [gamma-33P]-ATP addition and measured after 120 mins by radiometric Hot-SpotSM Kinase assay relative to control.
The target of assay [2] is T1, Serine/threonine-protein kinase A-Raf (Homo sapiens) (UniProt P10398).
T1 sequence (whole entry): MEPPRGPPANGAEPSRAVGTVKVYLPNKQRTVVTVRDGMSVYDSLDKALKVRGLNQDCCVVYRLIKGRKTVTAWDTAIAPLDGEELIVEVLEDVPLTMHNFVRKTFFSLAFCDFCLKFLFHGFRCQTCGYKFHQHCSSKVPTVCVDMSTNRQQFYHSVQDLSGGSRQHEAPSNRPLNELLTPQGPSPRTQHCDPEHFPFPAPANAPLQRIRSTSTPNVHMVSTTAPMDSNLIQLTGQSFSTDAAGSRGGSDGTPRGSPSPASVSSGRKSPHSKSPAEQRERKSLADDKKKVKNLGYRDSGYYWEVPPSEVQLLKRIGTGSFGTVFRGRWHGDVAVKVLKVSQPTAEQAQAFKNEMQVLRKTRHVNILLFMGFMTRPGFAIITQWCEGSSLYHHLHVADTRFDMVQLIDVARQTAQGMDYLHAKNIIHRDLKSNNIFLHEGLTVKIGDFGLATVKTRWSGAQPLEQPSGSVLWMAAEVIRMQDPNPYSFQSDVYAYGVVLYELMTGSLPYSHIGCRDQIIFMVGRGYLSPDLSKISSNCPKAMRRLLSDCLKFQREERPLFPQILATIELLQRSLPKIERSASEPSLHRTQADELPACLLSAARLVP
As to the kind of experiment: Inhibition of human ARAF assessed as enzyme activity at 1 uM using MEK1 (K97R) as substrate preincubated for 20 mins followed by [gamma-33P]-ATP addition and measured after 120 mins by radiometric Hot-SpotSM Kinase assay relative to control.

Assay [3] concerns the target Cyclin-Y/Cyclin-dependent kinase 16 (Homo sapiens) (UniProt Q00536+Q8ND76). As to the kind of experiment: Inhibition of human CDK16/cyclin Y assessed as enzyme activity at 1 uM using RB Protein as substrate preincubated for 20 mins followed by [gamma-33P]-ATP addition and measured after 120 mins by radiometric Hot-SpotSM Kinase assay relative to control. The class given is protein-complex assay.

Assay [4] deals with Casein kinase I isoform gamma-1 (Homo sapiens) (UniProt Q9HCP0). As to the kind of experiment: Inhibition of human CK1g1 assessed as enzyme activity at 1 uM using KRRRAL[pS]VASLPGL as substrate preincubated for 20 mins followed by [gamma-33P]-ATP addition and measured after 120 mins by radiometric Hot-SpotSM Kinase assay relative to control.
In assay [5] the target is Ephrin type-A receptor 7 (Homo sapiens) (UniProt Q15375). As to the kind of experiment: Inhibition of human EPHA7 assessed as enzyme activity at 1 uM using poly[Glu:Tyr] (4:1) as substrate preincubated for 20 mins followed by [gamma-33P]-ATP addition and measured after 120 mins by radiometric Hot-SpotSM Kinase assay relative to control.
Assay [6] concerns the target Receptor tyrosine-protein kinase erbB-4 (Homo sapiens) (UniProt Q15303). As to the kind of experiment: Inhibition of human ERBB4 assessed as enzyme activity at 1 uM using poly[Glu:Tyr] (4:1) as substrate preincubated for 20 mins followed by [gamma-33P]-ATP addition and measured after 120 mins by radiometric Hot-SpotSM Kinase assay relative to control.
In assay [7] the target is Tyrosine-protein kinase Fgr (Homo sapiens) (UniProt P09769). As to the kind of experiment: Inhibition of human FGR assessed as enzyme activity at 1 uM using poly[Glu:Tyr] (4:1) as substrate preincubated for 20 mins followed by [gamma-33P]-ATP addition and measured after 120 mins by radiometric Hot-SpotSM Kinase assay relative to control.
The target of assay [8] is Receptor-type tyrosine-protein kinase FLT3 (Homo sapiens) (UniProt P36888). As to the kind of experiment: Inhibition of human FLT3 assessed as enzyme activity at 1 uM using EAIYAAPFAKKK as substrate preincubated for 20 mins followed by [gamma-33P]-ATP addition and measured after 120 mins by radiometric Hot-SpotSM Kinase assay relative to control.
The target of assay [9] is G protein-coupled receptor kinase 5 (Homo sapiens) (UniProt P34947). As to the kind of experiment: Inhibition of human GRK5 assessed as enzyme activity at 1 uM using casein as substrate preincubated for 20 mins followed by [gamma-33P]-ATP addition and measured after 120 mins by radiometric Hot-SpotSM Kinase assay relative to control.
For assay [10], the target named is Mitogen-activated protein kinase 9 (Homo sapiens) (UniProt P45984). As to the kind of experiment: Inhibition of human JNK2-alpha2 assessed as enzyme activity at 1 uM using ATF2 as substrate preincubated for 20 mins followed by [gamma-33P]-ATP addition and measured after 120 mins by radiometric Hot-SpotSM Kinase assay relative to control.
Assay [11] has as its target LIM domain kinase 1 (Homo sapiens) (UniProt P53667). As to the kind of experiment: Inhibition of human LIMK1 assessed as enzyme activity at 1 uM using cofilin 1 as substrate preincubated for 20 mins followed by [gamma-33P]-ATP addition and measured after 120 mins by radiometric Hot-SpotSM Kinase assay relative to control.
Assay [12] has as its target T2, Serine/threonine-protein kinase Nek3 (Homo sapiens) (UniProt P51956).
T2 sequence (whole entry): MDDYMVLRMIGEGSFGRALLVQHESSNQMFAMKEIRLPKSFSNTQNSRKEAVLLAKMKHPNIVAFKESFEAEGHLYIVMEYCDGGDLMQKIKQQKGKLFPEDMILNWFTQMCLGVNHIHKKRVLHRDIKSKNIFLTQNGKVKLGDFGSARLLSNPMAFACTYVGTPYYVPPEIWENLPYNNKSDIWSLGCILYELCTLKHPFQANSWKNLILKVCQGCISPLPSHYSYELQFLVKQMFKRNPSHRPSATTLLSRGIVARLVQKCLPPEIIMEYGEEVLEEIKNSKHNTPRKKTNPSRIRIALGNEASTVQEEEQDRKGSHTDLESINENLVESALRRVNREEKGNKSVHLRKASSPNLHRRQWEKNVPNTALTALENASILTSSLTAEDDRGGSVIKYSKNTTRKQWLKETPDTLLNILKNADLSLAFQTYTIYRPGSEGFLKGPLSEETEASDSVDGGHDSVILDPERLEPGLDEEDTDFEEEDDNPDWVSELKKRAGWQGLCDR
As to the kind of experiment: Inhibition of human NEK3 assessed as enzyme activity at 1 uM using myelin basic protein as substrate preincubated for 20 mins followed by [gamma-33P]-ATP addition and measured after 120 mins by radiometric Hot-SpotSM Kinase assay relative to control.

The target of assay [13] is Serine/threonine-protein kinase PAK 6 (Homo sapiens) (UniProt Q9NQU5). As to the kind of experiment: Inhibition of human PAK6 assessed as enzyme activity at 1 uM using RRRLSFAEPG as substrate preincubated for 20 mins followed by [gamma-33P]-ATP addition and measured after 120 mins by radiometric Hot-SpotSM Kinase assay relative to control.
Assay [14] concerns the target Protein kinase C theta type (Homo sapiens) (UniProt Q04759). As to the kind of experiment: Inhibition of human PKCtheta assessed as enzyme activity at 1 uM using ERMRPRKRQGSVRRRV as substrate preincubated for 20 mins followed by [gamma-33P]-ATP addition and measured after 120 mins by radiometric Hot-SpotSM Kinase assay relative to control.

Tyrosine-protein kinase Fgr (Homo sapiens), sequence (P09769 2-529 limits assumed): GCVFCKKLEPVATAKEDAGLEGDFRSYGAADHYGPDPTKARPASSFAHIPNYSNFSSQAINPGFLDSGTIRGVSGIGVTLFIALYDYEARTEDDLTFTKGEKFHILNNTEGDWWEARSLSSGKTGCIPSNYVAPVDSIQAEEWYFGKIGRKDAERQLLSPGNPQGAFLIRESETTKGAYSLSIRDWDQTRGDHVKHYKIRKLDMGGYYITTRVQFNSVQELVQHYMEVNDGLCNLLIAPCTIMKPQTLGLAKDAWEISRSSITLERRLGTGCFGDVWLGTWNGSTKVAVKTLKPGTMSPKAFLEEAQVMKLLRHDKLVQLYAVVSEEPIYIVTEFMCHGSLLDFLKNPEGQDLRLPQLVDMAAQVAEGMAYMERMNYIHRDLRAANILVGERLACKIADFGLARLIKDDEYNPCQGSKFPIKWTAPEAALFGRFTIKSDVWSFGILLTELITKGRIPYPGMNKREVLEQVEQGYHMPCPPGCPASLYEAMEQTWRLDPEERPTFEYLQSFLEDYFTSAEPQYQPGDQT
Bone morphogenetic protein receptor type-1B (Homo sapiens), sequence (O00238 whole entry): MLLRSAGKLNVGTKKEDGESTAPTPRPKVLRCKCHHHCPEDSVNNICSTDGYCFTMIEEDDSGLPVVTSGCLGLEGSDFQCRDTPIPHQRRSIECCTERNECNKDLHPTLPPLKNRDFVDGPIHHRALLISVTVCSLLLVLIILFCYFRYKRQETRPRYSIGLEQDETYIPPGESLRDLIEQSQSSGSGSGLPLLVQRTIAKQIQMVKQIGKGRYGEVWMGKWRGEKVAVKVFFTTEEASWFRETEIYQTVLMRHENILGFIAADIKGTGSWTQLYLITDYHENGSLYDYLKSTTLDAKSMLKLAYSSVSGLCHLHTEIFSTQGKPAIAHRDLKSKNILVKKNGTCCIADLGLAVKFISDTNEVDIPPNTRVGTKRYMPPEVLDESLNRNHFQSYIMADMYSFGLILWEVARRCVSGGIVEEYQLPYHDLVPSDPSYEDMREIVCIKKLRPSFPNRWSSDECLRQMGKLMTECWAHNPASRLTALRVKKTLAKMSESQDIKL
Serine/threonine-protein kinase PAK 6 (Homo sapiens), sequence (Q9NQU5 whole entry, looked up): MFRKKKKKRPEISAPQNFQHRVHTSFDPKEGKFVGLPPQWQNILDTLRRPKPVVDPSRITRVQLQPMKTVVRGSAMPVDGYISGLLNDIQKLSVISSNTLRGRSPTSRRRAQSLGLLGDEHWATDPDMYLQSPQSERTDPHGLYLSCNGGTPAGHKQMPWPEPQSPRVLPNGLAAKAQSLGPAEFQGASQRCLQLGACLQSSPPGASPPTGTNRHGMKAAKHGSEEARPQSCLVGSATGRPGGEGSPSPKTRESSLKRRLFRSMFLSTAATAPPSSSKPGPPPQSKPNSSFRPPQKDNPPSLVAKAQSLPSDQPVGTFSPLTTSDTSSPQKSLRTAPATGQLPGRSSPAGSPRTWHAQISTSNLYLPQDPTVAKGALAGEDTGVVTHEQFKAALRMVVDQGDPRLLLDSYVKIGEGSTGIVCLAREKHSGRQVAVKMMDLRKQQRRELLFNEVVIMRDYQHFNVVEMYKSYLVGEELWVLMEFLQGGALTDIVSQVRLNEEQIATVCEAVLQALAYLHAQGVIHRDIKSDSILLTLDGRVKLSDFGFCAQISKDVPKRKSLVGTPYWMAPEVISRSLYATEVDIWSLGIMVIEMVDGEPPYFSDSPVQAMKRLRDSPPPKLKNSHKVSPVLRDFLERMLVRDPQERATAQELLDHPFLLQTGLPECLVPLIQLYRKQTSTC
G protein-coupled receptor kinase 5 (Homo sapiens), sequence (P34947 whole entry, looked up): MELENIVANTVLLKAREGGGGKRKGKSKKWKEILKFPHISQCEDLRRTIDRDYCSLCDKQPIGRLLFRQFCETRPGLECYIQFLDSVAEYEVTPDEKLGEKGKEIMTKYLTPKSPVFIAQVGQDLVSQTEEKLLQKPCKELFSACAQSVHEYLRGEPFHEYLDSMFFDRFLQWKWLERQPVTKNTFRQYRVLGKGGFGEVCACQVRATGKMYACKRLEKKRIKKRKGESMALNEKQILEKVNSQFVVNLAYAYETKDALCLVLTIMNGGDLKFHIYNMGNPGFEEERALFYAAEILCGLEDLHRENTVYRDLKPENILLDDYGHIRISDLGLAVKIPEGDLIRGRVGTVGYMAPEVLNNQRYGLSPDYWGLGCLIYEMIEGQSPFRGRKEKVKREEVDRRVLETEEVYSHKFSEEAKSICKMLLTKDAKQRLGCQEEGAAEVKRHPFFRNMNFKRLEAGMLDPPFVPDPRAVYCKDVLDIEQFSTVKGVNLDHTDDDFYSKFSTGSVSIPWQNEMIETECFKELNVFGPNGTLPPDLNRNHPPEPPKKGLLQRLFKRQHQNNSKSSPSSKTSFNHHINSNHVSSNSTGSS
Receptor tyrosine-protein kinase erbB-4 (Homo sapiens), sequence (Q15303 whole entry): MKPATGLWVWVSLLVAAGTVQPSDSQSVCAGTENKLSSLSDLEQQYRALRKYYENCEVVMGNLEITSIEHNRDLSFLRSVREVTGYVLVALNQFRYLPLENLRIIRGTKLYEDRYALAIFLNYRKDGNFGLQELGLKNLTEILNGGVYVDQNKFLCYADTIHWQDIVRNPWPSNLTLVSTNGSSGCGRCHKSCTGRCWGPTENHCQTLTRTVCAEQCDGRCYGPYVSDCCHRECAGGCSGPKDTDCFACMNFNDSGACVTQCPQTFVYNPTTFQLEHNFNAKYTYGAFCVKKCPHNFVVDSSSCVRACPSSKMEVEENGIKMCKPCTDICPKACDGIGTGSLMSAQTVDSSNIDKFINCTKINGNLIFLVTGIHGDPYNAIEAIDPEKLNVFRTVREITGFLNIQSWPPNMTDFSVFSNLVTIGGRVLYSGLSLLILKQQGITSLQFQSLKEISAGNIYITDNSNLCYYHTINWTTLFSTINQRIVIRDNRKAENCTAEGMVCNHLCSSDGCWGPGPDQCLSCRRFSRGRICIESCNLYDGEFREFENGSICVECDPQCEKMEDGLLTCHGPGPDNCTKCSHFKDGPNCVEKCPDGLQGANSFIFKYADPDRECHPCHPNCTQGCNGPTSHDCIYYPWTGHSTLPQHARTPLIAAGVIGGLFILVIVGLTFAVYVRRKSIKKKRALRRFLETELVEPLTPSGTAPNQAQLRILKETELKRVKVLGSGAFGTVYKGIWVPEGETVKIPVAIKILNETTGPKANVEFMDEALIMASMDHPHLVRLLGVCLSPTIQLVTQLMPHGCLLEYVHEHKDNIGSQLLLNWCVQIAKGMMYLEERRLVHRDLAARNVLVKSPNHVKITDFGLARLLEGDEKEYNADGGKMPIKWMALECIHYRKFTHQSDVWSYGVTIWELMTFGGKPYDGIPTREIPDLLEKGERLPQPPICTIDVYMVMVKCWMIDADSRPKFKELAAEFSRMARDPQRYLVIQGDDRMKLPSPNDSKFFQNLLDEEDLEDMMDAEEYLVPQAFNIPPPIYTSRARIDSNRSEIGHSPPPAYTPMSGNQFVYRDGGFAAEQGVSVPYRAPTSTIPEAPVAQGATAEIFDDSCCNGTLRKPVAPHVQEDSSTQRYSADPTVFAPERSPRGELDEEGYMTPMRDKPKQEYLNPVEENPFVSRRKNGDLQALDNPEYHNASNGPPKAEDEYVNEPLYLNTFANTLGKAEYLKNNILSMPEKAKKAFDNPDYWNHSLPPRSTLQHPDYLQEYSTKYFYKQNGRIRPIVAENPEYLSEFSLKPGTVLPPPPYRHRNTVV
Casein kinase I isoform gamma-1 (Homo sapiens), sequence (Q9HCP0 whole entry, looked up, canonical isoform): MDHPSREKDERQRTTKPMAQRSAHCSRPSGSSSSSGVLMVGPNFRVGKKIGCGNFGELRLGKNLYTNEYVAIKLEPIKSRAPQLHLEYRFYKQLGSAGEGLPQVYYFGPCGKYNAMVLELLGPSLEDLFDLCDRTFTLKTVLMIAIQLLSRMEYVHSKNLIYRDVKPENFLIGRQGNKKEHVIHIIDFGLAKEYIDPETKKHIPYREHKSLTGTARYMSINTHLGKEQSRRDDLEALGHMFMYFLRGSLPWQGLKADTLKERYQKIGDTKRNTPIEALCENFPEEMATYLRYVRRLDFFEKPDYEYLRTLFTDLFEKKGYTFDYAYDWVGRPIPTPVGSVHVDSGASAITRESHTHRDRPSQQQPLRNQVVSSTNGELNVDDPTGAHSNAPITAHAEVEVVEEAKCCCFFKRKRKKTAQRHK
Mitogen-activated protein kinase 9 (Homo sapiens), sequence (P45984 whole entry, looked up, the tested form may be a part): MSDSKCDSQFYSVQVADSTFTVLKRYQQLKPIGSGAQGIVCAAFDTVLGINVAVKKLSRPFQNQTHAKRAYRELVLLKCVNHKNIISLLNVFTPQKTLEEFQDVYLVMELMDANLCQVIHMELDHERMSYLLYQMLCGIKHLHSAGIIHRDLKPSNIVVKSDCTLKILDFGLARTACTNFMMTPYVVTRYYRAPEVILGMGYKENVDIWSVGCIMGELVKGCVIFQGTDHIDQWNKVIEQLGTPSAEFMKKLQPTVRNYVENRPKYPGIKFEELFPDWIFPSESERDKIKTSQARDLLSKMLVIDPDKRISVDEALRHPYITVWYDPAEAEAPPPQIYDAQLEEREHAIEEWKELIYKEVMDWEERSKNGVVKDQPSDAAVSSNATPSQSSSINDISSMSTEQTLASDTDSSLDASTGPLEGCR

For the compound `C[C@H](Nc1ncnc2nc[nH]c12)c1cc2cccc(Cl)c2c(=O)n1-c1ccccc1`, the Activity in assay [1] was 103%; in assay [2], 86.4%; in assay [3] it was 97.7%; in assay [4], 98.3%; in assay [5], 93.4%; in [6], 97.4%. For the same compound, the Activity in [7] worked out at 103%; in [8], 101%; in [9], 106%; in assay [10], 97.8%; in assay [11], 90%; in assay [12], 98.5%. In addition, the Activity was found to be 99.5% in [13] and 112% in assay [14].
Regarding `CC[C@H](Nc1ncnc2[nH]cnc12)c1nc2cccc(F)c2c(=O)n1-c1ccccc1`, the Activity in assay [1] was determined as 103%; in assay [2], 92.3%; in assay [3], 96.5%; in assay [4], 105%; in [5], 89.7%; in assay [6], 101%. Also, the Activity in [7] came out at 98.8%; in assay [8], 99.3%; in assay [9] it was 104%; in [10], 96.8%; in [11], 87.3%; in assay [12], 93.9%. The Activity in assay [13] was 102%; in assay [14], 109%.
As to `CC(C)Oc1ccc(-c2nn([C@@H](C)c3oc4ccc(F)cc4c(=O)c3-c3cccc(F)c3)c3ncnc(N)c23)cc1F` [UMBRALISIB], the Activity in [1] was 110%; in assay [2], 84.4%; in assay [3] it was 98.5%; in assay [4], 97.6%; in assay [5] it was 88.7%; in [6], 101%. The Activity in assay [7] worked out at 99.6%; in [8] it was 95.5%; in assay [9], 111%; in assay [10] it was 97.3%; in assay [11], 96.7%; in assay [12] it was 101%. Also, the Activity in [13] is 97.2%; in assay [14] it was 106%.

The record behind these values is ChEMBL document CHEMBL5715954, “Silencing c-Myc translation as a therapeutic strategy through targeting PI3Kδ and CK1ε in hematological malignancies” (Blood, 2017).
